Experimental data taken from PMC11373624, “Development and preclinical characterization of a novel radiotheranostic EphA2-targeting bicyclic peptide” (Theranostics, 2024).
Numbered stars: 1 amine (or outer) side, 2 acyl side, 3 side chain; on linkers, the order of the positions; unused ones are H or OH. Bridge positions count the residues as written; N and C are the ends. Square brackets hold non-standard residues; d marks the D form. Peptide text beside a SMILES is read from it. * marks the point of attachment. DOTA = O=C(O)CN1CCN(CC(=O)O)CCN(CC(=O)*)CCN(CC(=O)O)CC1; TATA = O=C(CC[*:1])N1CN(C(=O)CC[*:2])CN(C(=O)CC[*:3])C1; Hyp = O=C(O)[C@@H]1C[C@@H](O)CN1; hArg = N=C(N)NCCCC[C@H](N)C(=O)O; Cba = N[C@@H](CC1CCC1)C(=O)O; βAla = NCCC(=O)O; Sar = CNCC(=O)O

How the values were obtained:
Mouse EphA2 = target: T1, Mouse EphA2 (Mus musculus, UniProt Q03145); test: SPR binding to mouse EphA2
T1 construct: Fc; purchased R&D Systems 639-A2
Method: (§1) The commercial source details of the recombinant proteins used in SPR were as follows: Human proteins: EphA1 (15789-H02H, Sino Biological), EphA3 (644-A3, R&D Systems), EphA6 (5606-A6, R&D Systems), EphA7 (6756-A7, R&D Systems). Mouse proteins: Mouse EphA2 was purchased from R&D Systems (Product number 639-A2). Mouse EphA2-Fc was resuspended as per manufacturer's recommendations and material was passed through a SuperdexS200 column to remove aggregates.
(§2) SPR experiments were performed on a Biacore 8K+ (Cytiva Life Sciences, USA) instrument, with methods matched for both human and mouse EphA2 protein. Protein was captured on to a Cytiva NTA sensor chip (Cytiva Life Sciences), via the expressed His-tag; this was followed by primary amine coupling chemistry to covalently immobilize the protein to the chip at 25°C. Initially the surface was injected with 0.5 mM NiCl2 for 2 minutes, followed by activation of the carboxymethyl dextran surface for 7 minutes using an injection of a 1:1 ratio of 0.4 M 1-ethyl-3-(3-dimethylaminopropyl) carbodiimide hydrochloride (EDC)/0.1 M N-hydroxy succinimide (NHS) at a flow rate of 10 µL/min.
Human EphA2 protein was captured to the Ni-NTA surface to a level of 200-300 RU and Mouse EphA2 to 500-800 RU; the residual activated groups were then blocked with a 7 minute injection of 1 M ethanolamine (pH 8.5):HBS-N (1:1). […]

Human EphA6 = target: T2, Human EphA6 (Homo sapiens, UniProt Q9UF33); test: SPR homologue panel, EphA6; conditions: human EphA6, n=1; read-out: KD, no binding up to
T2 construct: purchased R&D Systems 5606-A6
T2 sequence (Q9UF33 23-1036): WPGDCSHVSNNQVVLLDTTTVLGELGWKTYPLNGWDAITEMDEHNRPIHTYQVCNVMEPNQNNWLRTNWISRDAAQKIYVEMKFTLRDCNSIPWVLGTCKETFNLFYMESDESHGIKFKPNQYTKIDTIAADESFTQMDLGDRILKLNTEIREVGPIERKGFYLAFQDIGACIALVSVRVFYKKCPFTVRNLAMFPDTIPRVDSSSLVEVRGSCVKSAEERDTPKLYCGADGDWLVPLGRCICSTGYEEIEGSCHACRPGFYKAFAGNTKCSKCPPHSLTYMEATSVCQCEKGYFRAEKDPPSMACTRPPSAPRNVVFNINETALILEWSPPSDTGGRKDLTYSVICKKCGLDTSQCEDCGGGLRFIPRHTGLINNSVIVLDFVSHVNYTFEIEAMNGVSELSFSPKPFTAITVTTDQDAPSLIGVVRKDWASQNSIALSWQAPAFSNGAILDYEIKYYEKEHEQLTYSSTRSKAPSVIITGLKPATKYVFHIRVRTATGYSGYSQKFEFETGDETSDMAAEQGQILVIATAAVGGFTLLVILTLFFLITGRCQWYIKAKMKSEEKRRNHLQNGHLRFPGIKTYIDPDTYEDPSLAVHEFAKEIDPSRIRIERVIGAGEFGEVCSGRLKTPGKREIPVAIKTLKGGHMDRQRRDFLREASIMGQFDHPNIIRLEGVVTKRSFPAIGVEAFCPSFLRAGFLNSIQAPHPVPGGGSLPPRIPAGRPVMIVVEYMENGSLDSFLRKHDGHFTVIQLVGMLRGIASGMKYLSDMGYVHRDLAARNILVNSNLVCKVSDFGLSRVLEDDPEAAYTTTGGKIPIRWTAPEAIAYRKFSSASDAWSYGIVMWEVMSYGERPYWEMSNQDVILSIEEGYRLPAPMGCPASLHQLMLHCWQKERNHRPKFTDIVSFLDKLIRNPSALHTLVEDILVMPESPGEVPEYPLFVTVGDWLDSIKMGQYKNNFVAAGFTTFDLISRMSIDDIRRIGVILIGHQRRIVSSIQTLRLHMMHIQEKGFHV
Method: as §1, §2
(§3) Peptide was prepared in PBS/0.05% Tween 20 with a final DMSO concentration of 0.5%. The top peptide concentration was 100 or 500 nM and 5 further 3-fold dilutions. […]

Human EphA5 = Human EphA5 (Homo sapiens, UniProt P54756); test: SPR homologue panel, EphA5; conditions: human EphA5, n=1; read-out: KD, no binding up to
Human EphA3 = target: T3, Human EphA3 (Homo sapiens, UniProt P29320); test: SPR homologue panel, EphA3; conditions: human EphA3, n=1; read-out: KD, no binding up to
T3 construct: purchased R&D Systems 644-A3
Method: as §1, §2, §3

T1 sequence (Q03145 with tags, fused parts or gaps limits assumed): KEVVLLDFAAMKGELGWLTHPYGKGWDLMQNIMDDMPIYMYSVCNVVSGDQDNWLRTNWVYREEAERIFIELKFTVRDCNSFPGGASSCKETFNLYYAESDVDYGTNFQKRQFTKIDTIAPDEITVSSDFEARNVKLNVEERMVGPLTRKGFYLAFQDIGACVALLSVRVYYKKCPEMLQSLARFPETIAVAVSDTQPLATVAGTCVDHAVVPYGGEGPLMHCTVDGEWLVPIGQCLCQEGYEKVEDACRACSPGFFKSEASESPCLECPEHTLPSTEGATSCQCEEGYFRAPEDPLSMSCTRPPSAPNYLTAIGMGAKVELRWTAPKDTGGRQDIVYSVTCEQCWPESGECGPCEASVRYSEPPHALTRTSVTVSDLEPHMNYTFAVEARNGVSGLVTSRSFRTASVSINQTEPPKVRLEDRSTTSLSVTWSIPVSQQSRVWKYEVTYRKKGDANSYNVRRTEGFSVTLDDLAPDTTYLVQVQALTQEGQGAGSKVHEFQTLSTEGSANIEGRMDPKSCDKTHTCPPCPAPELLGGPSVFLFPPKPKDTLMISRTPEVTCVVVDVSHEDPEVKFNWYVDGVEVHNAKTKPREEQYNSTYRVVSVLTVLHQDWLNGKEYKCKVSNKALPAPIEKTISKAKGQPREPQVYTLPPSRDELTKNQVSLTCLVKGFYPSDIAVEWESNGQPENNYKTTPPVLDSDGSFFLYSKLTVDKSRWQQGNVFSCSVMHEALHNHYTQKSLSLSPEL
Human EphA5, sequence (P54756 25-1037): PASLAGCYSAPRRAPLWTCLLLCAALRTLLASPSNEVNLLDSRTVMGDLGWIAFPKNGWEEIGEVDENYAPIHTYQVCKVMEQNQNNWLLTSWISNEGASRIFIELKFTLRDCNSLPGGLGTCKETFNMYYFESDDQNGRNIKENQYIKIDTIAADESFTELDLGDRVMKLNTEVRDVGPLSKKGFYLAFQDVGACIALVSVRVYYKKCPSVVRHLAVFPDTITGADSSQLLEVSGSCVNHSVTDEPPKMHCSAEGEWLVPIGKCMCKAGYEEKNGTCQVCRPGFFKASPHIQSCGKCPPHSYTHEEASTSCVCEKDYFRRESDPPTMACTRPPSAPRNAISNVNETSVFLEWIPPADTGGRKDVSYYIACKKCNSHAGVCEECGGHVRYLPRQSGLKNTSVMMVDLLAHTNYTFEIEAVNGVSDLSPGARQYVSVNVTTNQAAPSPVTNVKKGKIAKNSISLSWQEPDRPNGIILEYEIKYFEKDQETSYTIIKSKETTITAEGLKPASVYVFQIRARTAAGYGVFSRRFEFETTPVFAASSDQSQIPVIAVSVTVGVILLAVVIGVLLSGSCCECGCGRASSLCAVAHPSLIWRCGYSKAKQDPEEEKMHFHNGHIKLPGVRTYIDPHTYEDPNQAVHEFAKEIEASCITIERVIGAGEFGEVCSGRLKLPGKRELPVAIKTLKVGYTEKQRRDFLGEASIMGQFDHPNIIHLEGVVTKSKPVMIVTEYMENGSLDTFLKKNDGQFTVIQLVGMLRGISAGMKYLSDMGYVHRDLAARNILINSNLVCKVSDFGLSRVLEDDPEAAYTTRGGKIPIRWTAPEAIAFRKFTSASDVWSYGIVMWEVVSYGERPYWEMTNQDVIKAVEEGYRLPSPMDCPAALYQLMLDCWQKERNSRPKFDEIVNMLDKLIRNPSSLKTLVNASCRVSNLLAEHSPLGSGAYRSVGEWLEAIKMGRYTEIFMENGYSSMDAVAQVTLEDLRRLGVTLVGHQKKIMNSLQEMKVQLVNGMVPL
T3 sequence (P29320 with tags, fused parts or gaps limits assumed): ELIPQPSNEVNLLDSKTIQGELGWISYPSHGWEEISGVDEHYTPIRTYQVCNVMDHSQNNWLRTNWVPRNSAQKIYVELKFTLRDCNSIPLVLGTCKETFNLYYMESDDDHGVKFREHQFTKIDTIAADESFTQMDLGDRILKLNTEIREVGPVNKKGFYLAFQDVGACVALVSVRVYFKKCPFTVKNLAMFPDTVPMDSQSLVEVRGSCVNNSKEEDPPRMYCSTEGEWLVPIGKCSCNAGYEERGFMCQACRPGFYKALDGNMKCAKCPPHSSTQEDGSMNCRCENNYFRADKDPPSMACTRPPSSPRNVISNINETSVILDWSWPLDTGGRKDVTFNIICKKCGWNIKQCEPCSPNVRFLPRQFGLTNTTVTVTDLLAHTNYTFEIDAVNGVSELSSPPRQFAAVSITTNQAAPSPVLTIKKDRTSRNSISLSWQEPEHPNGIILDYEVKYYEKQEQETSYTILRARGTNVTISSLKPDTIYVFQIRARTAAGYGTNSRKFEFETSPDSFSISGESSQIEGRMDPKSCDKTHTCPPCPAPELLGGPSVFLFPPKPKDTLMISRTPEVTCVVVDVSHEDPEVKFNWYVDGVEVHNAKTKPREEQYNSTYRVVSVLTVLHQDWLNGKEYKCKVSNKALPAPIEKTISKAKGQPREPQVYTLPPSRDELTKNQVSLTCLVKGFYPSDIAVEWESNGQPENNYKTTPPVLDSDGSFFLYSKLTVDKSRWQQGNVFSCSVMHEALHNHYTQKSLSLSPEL

## CC(C)C[C@@H]1NC(=O)[C@@H]2CSCCC(=O)N3CN(CN(C3)C(=O)CCSC[C@H](NC(=O)[C@H](CC(=O)O)NC(=O)[C@H](CCCCNC(=N)N)NC(=O)[C@H](C)NC(=O)CN(C)C(=O)CN(C)C(=O)CN(C)C(=O)CN(C)C(=O)CN(C)C(=O)CN(C)C(=O)CN(C)C(=O)CN(C)C(=O)CN(C)C(=O)CN(C)C(=O)CCNC(=O)CN3CCN(CC(=O)O)CCN(CC(=O)O)CCN(CC(=O)O)CC3)C(=O)N3C[C@H](O)C[C@H]3C(=O)N[C@@H](CC3CCC3)C(=O)N[C@@H](C(C)C)C(=O)N[C@@H](CC(N)=O)C(=O)N3CCC[C@H]3C(=O)N[C@@H](CC(C)C)C(=O)N2)C(=O)CCSC[C@@H](C(N)=O)NC(=O)[C@H](CCCCNC(=N)N)NC(=O)[C@H](Cc2c[nH]c3ccccc23)NC(=O)[C@@H](CC(=O)O)NC(=O)[C@@H]2CCCN2C(=O)[C@H](Cc2c[nH]cn2)NC1=O [BCY18469, [-DOTA]-[B-Ala]-[Sar10]-Ala-[HArg]-Asp-Cys-[HyP]-[Cba]-Val-Asn-Pro-Leu-Cys-Leu-His-Pro-[dAsp]-Trp-[HArg]-Cys-CONH2] ({DOTA-βAla}-[Sar][Sar][Sar][Sar][Sar][Sar][Sar][Sar][Sar][Sar]A[hArg]DC[Hyp][Cba]VNPLCLHP[dD]W[hArg]C-NH2; linker 14-21-28 via TATA)
Mouse EphA2; mouse EphA2, 25°C
  Kd: 0.00382 ± 0.00056 µM
Mouse EphA2; mouse EphA2, n=2, read-out: ka
  kon: 419000 M⁻¹ s⁻¹
Human EphA6
  Kd: > 5 µM
Human EphA5
  Kd: > 5 µM
Human EphA3
  Kd: > 5 µM
